Consider two molecules from paper PMC10541198, “Specific quinone reductase 2 inhibitors reduce metabolic burden and reverse Alzheimer’s disease phenotype in mice” (The Journal of Clinical Investigation, 2023).

For one experiment, the system named is C57BL/6 mice. Description: Delay fear conditioning, microinjection to hippocampal CA1. In kind it is in vivo, mouse. The method, then:
(§1) In order to evaluate the efficacy of some of the leading QR2is in vivo, we carried out double-blind experiments using 2 different modalities (Supplemental Methods), measuring memory that is dependent on different brain areas. First, cortical memory was tested using incidental novel taste learning (see Methods), in which an unfamiliar, but palatable and safe, taste is given for the first time, and the memory for this newly learned taste is then assessed 2 days later. This is done by measuring the volume of the taste consumed upon subsequent exposure to it ([32]) (Figure 4A). […] Next, hippocampal-dependent learning was evaluated using delay fear conditioning (DFC; see Methods) ([33]). Mice were cannulated to the CA1 region of the hippocampus and were microinjected with YB-537 (1 μL of 5 μM, Figure 4, D and H) or vehicle. […] In order to evaluate any possible effect of acute QR2i microinjection on metabolic stress in the mouse brain, ISR activation was measured by quantifying total and phosphorylated eukaryotic initiation factor 2 α (eIF2α) levels (Supplemental Figure 3A) and lipid peroxidation product, 4-hydroxynonenal (4-HNE; Supplemental Figure 3B), by immunoblot 3 hours after the injection.
DFC was done as previously described ([7]). Briefly, mice were given 2 minutes to explore the conditioning chambers, during which baseline freezing was measured. Then, a 20 second, 4 kHz, 80 dB tone was given, coterminating with the start of a 2 second, 0.5 mA foot-shock. This was repeated twice more in 1 minute intervals. Following the third and last bout, 1 minute was given before the animals were removed from the chambers. The next day, the animals were returned to the room under the same conditions and were placed back into the chambers, and freezing to the context was measured over the course of 5 minutes. The next day, the mice were brought to unfamiliar conditioning rooms and chambers. In this unfamiliar context, the protocol from the first day was repeated, except without the foot shocks. Freezing for the cue was recorded, starting from the sounding of the first tone. All measurements were taken with a Sentec stc-tb33usb-at camera, and analysis was done with Freeze Frame software (Actimetrics). […]
Mice were anesthetized under 2% isoflurane, using an induction box (HME109, Highland Medical Equipment). They were placed in a stereotaxic device (Kopf Stereotaxic Alignment System, model 1900) under continuous 1% isoflurane anesthesia. Guide cannulas were implanted bilaterally to CA1 (from bregma: −1.9 mm AP, ±1.4 mm, −1.6 mm DV), cemented to the skull and fitted with 28- gauge dummy cannulas e xt e ndi ng 0.2 mm beyond the tip of the 1.2 mm guide cannulas. The mice were allowed at least 7 days of r ecover y before e xpe r im e nt at ion. The QR2 inhibitor YB-537 was dissolved in saline (0.9%). A total of 1μL of 5μM of YB-537 or vehicle was infused bilaterally to CA1, via a 28- gauge infusion cannula projecting 0.4 mm (drug delivery depth bregma: […]) beyond the guide cannula, connected by polyethylene tubing to a 10μL s yr i nge (Hamilton) ove r the course of 1m i n. The injection cannula was […]
kept for 60s inside the guide cannula in order prevent osmotic seepage of the doses upward through the cannula tract. Twenty minutes following the injection, animals underwent delay fear conditioning.
Following experimentation, animals were killed, brains were sliced in coronal sections, and cannula implantation was validated by imaging.
Incidental Tast e Learning […]
neophobia is highly conserved across species, as it is the fi rst line of defense against potentially poisonous, newly discovered foodstuffs.
However, once a memory for the taste is formed and no associated ill effect is learned, the taste becomes familiar and the animal consumes it more freely, especially if it is a pleasant, palatable taste. Thus, the stronger the memory for the safe, palatable taste, the more likely the animal will consume it(32, 56). […]

The test system of the next experiment is Sprague Dawley rats. Nature of the experiment: Incidental novel taste learning, microinjection to anterior insular cortex. In kind it is in vivo, rat. The note with it: 1 μL of 20 μM to aIC. On the procedure:
as §1, with “([33]).” for “([33]). Mice were cannulated to the CA1 region of the hippocampus and were microinjected with YB-537 (1 μL of 5 μM, Figure 4, D and H) or vehicle.”
Rats were taught to drink from 2 pipettes each filled with 10 mL of water during a 20 minute period, over 3 days. […] The memory for the novel taste was then assessed after 20 minutes of liquid consumption by calculating a preference index as follows: (novel taste consumed/[novel taste consumed+water consumed]) × 100 ([32], [56]). […]

[1] abbreviates: 5 μM to CA1, in % (unit assumed).

Values joined by “and” are separate entries in the source; they are usually repeats but may differ in a detail not shown here. Equal entries are not always repeated.

Turning to `Cc1ccc(-c2cn3cccc(C)c3n2)cc1S(=O)(=O)N1CCNCC1` [YB-537], the “inter-trial learning during conditioning” value in the experiment on C57BL/6 mice (5 μM to CA1, n=6) is “normal inter-trial learning”. The “freezing during conditioning (individual mice)” value in the experiment with C57BL/6 mice (5 μM to CA1, Baseline, in % (unit assumed)) was 2.45 and 0.22 and 3.23 and 4.78 and 9.01 and 1.89; in the experiment with C57BL/6 mice (5 μM to CA1, CS/US 1, in % (unit assumed)) it was 13.08 and 8.81 and 18.16 and 10.01 and 26.70 and 2.54; with C57BL/6 mice (5 μM to CA1, CS/US 2, in % (unit assumed)) it was 20.03 and 15.78 and 28.12 and 17.97 and 27.02 and 2.19; in the experiment with C57BL/6 mice (5 μM to CA1, CS/US 3, in % (unit assumed)) it was 24.88 and 20.00 and 35.58 and 21.40 and 33.02 and 2.33. Further, the “freezing in response to the context (individual mice)” value with C57BL/6 mice (setting [1]) was 59.92 and 49.69 and 57.37 and 25.70 and 41.84 and 33.92. The “freezing in response to the cue (individual mice)” value with C57BL/6 mice (setting [1]) was 51.89 and 48.39 and 35.02 and 23.60 and 5.68 and 24.28.

On to `Cc1ccc(-c2cn3cccc(C)c3n2)cc1S(=O)(=O)N1CCCC1` [YB-808], for which the “NaCl preference (individual rats)” value in the experiment with Sprague Dawley rats is 38.6905 and 81.6144 and 53.3708 and 75.5102 and 61.3924 and 79.4286 and 85.6322 and 50.9317 and 62.1118 and 87.6289 and 81.5476 and 81.8182 and 84.5161 and 50.3067 and 72.807 and 50.2703 and 76.5766 and 61.9048.
